According to the supplement of paper PMC10307832:

Columns and labels:
Experiment in all cases: relative viability (nuclei count vs DMSO), 5 days (fraction); higher = more cells survive
[1] = compound: CC1=CC=C(C=C1)C(=O)CN2C3=C(CCCC3)SC2=N [Pifithrin_alpha] + C[C@]1(O)C[C@@H](c2nc(-c3ccc4ccc(-c5ccccc5)nc4c3)c3c(N)nccn32)C1 [Linsitinib] (partner 1 µM)
Procedure, shortened: (§1)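 Relative viability equals treated-well nuclei counts divided by vehicle-well nuclei counts. Counts came from 4× images of lung cancer cell lines grown in 1536-well plates for 5 days after pin-tool dosing on the day after seeding. Dosing used one drug alone or a fixed anchor-drug dose plus five library-drug doses (not always all listed) in √10 steps, and values are medians of duplicate plates.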

[2] = compound: Nc1nc(Nc2ccc3c(c2)CC[C@@H](N2CCCC2)CC3)nn1-c1cc2c(nn1)-c1ccccc1CCC2 [Bemcentinib] + COc1cc2c(Oc3ccc(NC(=O)C4(C(=O)Nc5ccc(F)cc5)CC4)cc3F)ccnc2cc1OCCCN1CCOCC1 [Foretinib] (partner 0.25 µM)
Procedure, shortened: as §1

[3] = compound: CNC(=O)c1ccccc1Sc1ccc2c(/C=C/c3ccccn3)n[nH]c2c1 [Axitinib] + CC1(C)CCC(c2ccc(Cl)cc2)=C(CN2CCN(c3ccc(C(=O)NS(=O)(=O)c4ccc(N[C@H](CCN5CCOCC5)CSc5ccccc5)c(S(=O)(=O)C(F)(F)F)c4)cc3)CC2)C1 [Navitoclax] (partner 0.5 µM)
Procedure, shortened: as §1

[4] = compound: Nc1nc(Nc2ccc3c(c2)CC[C@@H](N2CCCC2)CC3)nn1-c1cc2c(nn1)-c1ccccc1CCC2 [Bemcentinib] + Cc1nc(NC(=O)N2CCC[C@H]2C(N)=O)sc1-c1ccnc(C(C)(C)C(F)(F)F)c1 [Alpelisib] (partner 2 µM)
Procedure, shortened: as §1

Cell Line | relative viability ([1]; first compound 1 µM) | relative viability ([1]; first compound 3.162 µM) | relative viability ([1]; first compound 10 µM) | relative viability ([1]; first compound 31.62 µM) | relative viability ([1]; first compound 100 µM) | relative viability ([2]; first compound 0.04 µM) | relative viability ([2]; first compound 0.1265 µM) | relative viability ([2]; first compound 0.4 µM) | relative viability ([2]; first compound 1.265 µM) | relative viability ([2]; first compound 4 µM) | relative viability ([3]; first compound 0.005 µM) | relative viability ([3]; first compound 0.01581 µM) | relative viability ([3]; first compound 0.05 µM) | relative viability ([3]; first compound 0.1581 µM) | relative viability ([3]; first compound 0.5 µM) | relative viability ([4]; first compound 0.04 µM) | relative viability ([4]; first compound 0.1265 µM) | relative viability ([4]; first compound 0.4 µM) | relative viability ([4]; first compound 1.265 µM) | relative viability ([4]; first compound 4 µM)
SK-MES-1 | 1 | 1.01 | 0.93 | 0.737 | 0.921 | 1.11 | 0.968 | 0.952 | 1.11 | 1.11 | 1.32 | 1.2 | 1.32 | 1.25 | 1.51 | 0.914 | 0.973 | 0.998 | 1.08 | 1.08
PC-3 [JPC-3] | 0.964 | 0.947 | 0.862 | 0.853 | 0.923 | 1.07 | 1.05 | 1.1 | 0.992 | 1.03 | 0.827 |  | 0.787 | 0.82 | 0.928 | 0.986 | 1.1 | 0.985 | 1.1 | 1.08
NCI-H1666 | 0.69 | 0.599 | 0.534 | 0.521 | 0.448 | 0.959 | 1.26 | 1.06 | 0.856 | 0.911 | 0.975 | 0.91 | 1.01 | 0.914 | 1.18 | 0.869 | 1.05 | 0.941 | 1.02 | 1.02
IA-LM | 0.784 | 0.554 | 0.272 | 0.501 | 0.267 | 1.08 | 1.25 | 0.985 | 1.08 | 1.09 | 0.88 | 0.79 | 0.944 | 0.823 | 0.829 | 0.749 | 0.807 | 0.748 | 0.652 | 0.78
HCC-78 | 0.481 | 0.54 | 0.513 |  | 0.584 | 0.578 | 0.486 | 0.555 |  | 0.562 | 0.873 | 0.842 | 0.727 | 0.754 | 0.737 | 0.246 | 0.322 | 0.336 | 0.39 | 0.33
HCC-366 | 0.512 | 0.508 | 0.581 |  | 0.469 | 0.888 | 0.952 | 0.946 | 0.914 | 0.941 | 1.07 | 1.03 | 1.01 | 1.06 | 1.15 | 0.474 | 0.408 | 0.572 | 0.378 | 0.417
NCI-H520 | 1.07 | 1.07 | 0.946 | 0.623 | 1.12 | 0.957 | 0.748 | 0.911 | 0.685 | 0.791 | 0.987 | 1.26 | 1.1 | 0.794 | 1.11 | 0.917 | 1.11 | 1.2 | 1.01 | 0.919
NCI-H1355 | 0.753 | 0.666 | 0.599 | 0.605 | 0.599 | 0.958 | 1.12 | 1.03 | 1.04 | 0.98 | 0.992 | 0.921 | 0.948 | 1.01 | 0.991 | 0.905 | 0.915 | 0.778 | 0.902 | 0.965
SW 1573 | 0.82 | 0.713 | 0.698 | 0.768 | 0.758 | 0.821 | 0.954 | 0.803 | 0.797 | 0.832 | 0.914 | 1.03 | 1.05 | 0.852 | 0.904 | 0.716 | 0.803 | 0.909 | 0.886 | 0.88
COR-L 105 | 0.786 | 0.713 | 0.859 | 0.573 | 0.662 | 1.43 | 1.27 | 1.01 | 0.856 | 0.993 | 1 | 0.828 | 0.795 | 0.65 | 1.07 | 1.05 | 0.949 | 1.03 | 0.931 | 0.895
COR-L23 | 0.974 | 1.02 | 0.882 |  | 0.871 | 0.949 | 1.23 | 0.969 | 1.08 | 0.999 | 0.948 | 0.983 | 1.15 | 1.07 | 1.15 | 0.874 | 0.778 | 0.965 | 0.9 | 0.904
NCI-H322M | 0.85 | 0.898 | 0.902 | 0.821 | 1.04 | 0.939 | 1.01 | 0.919 | 1.11 | 0.97 | 1.18 | 1.14 | 1.07 | 1.08 | 1.07 | 0.897 | 0.864 | 0.855 | 0.85 | 0.937
NCI-H2347 | 0.967 | 0.913 | 0.907 | 0.635 | 0.95 | 0.831 | 0.847 | 0.891 | 0.834 | 0.763 | 0.793 | 0.857 | 0.902 | 0.818 | 0.934 | 1.14 | 1.08 | 1.07 | 1.1 | 0.974
RERF-LC-KJ | 0.885 | 0.769 | 0.745 | 0.727 | 0.631 | 0.943 | 0.941 | 0.919 | 0.829 | 0.984 | 1 | 0.942 | 0.973 | 1.02 | 1.28 | 0.748 | 0.785 | 0.91 | 0.859 | 0.919
NCI-H2228 | 1.04 | 0.606 | 0.583 | 0.544 | 0.555 | 0.516 | 0.931 | 0.994 | 0.908 | 0.776 | 0.698 | 0.893 | 0.847 | 0.99 | 1.19 |  | 0.636 | 0.881 | 0.809 | 0.959
A549 |  | 0.582 | 0.595 | 0.458 | 0.71 | 0.95 | 1.03 | 0.977 | 1.08 | 1.11 | 1.19 | 1.24 | 1.25 | 1.13 | 1.18 | 0.834 | 0.892 | 0.754 | 0.988 | 0.875

Cell Line | relative viability ([1]; first compound 1 µM) | relative viability ([1]; first compound 3.162 µM) | relative viability ([1]; first compound 10 µM) | relative viability ([1]; first compound 31.62 µM) | relative viability ([1]; first compound 100 µM) | relative viability ([2]; first compound 0.04 µM) | relative viability ([2]; first compound 0.1265 µM) | relative viability ([2]; first compound 0.4 µM) | relative viability ([2]; first compound 1.265 µM) | relative viability ([2]; first compound 4 µM) | relative viability ([3]; first compound 0.005 µM) | relative viability ([3]; first compound 0.01581 µM) | relative viability ([3]; first compound 0.05 µM) | relative viability ([3]; first compound 0.1581 µM) | relative viability ([3]; first compound 0.5 µM) | relative viability ([4]; first compound 0.04 µM) | relative viability ([4]; first compound 0.1265 µM) | relative viability ([4]; first compound 0.4 µM) | relative viability ([4]; first compound 1.265 µM) | relative viability ([4]; first compound 4 µM)
NCI-H358 | 0.777 | 0.83 | 0.671 | 0.547 | 0.541 | 0.723 | 0.827 | 0.73 | 0.749 | 0.853 |  |  |  |  |  | 0.97 | 0.826 | 1.04 | 0.826 | 0.971
NCI-H2342 |  |  |  |  |  | 1.04 | 1.12 | 1.09 | 1.06 | 1.13 |  |  |  |  |  |  |  |  |  | 
A-427 | 1.07 | 1.06 | 1.1 | 0.924 | 1.11 | 1.09 | 1.1 | 1.24 | 1.06 | 1.19 | 0.999 | 1.05 | 0.925 | 0.958 | 1.04 |  | 1.05 | 1.18 | 1.04 | 1.15
NCI-H2126 | 0.696 | 0.695 | 0.68 | 0.661 | 0.682 | 1.25 | 1.43 | 1.37 | 1.13 | 1.23 | 0.81 | 0.877 | 0.824 | 0.841 | 0.765 | 0.799 | 0.772 | 0.669 | 0.768 | 0.786
NCI-H647 | 1.27 | 1.2 | 1.02 |  | 0.748 | 1.33 | 1.22 | 1.24 | 1.49 | 1.2 | 1.21 | 1.12 | 1.03 | 1.2 | 1.28 | 1.1 | 1.22 | 1.25 | 1.13 | 1.08
ChaGo-K-1 |  |  |  |  |  | 0.93 | 1.04 | 0.899 | 0.951 | 0.906 | 1.07 | 0.779 | 1.13 | 0.921 | 0.895 |  |  |  |  | 
HCC-44 | 0.571 | 0.607 | 0.64 | 0.441 | 0.578 |  |  |  |  |  | 1.04 | 1.06 | 0.99 | 0.939 | 1.12 | 0.875 | 0.911 | 0.939 | 0.967 | 1.05
NCI-H661 | 0.669 | 0.616 | 0.565 | 0.68 | 0.598 | 0.969 | 1.04 | 1.01 | 0.981 | 0.986 |  |  |  |  |  | 0.374 | 0.821 | 0.624 | 0.358 | 0.599
NCI-H1563 | 1.17 | 1.29 | 1.04 | 1.06 | 1 | 0.998 | 0.999 | 0.975 | 0.897 | 0.949 |  |  |  |  |  | 0.93 | 1.07 | 0.943 | 0.926 | 0.839
NCI-H1792 | 0.563 | 0.498 | 0.378 | 0.422 | 0.486 |  |  |  |  |  | 0.637 | 0.527 | 0.62 | 0.562 | 0.366 | 0.812 | 0.66 | 0.828 | 0.746 | 0.781
NCI-H2170 |  |  |  |  |  | 0.971 | 1.16 | 1.02 | 1.03 | 0.993 | 0.661 | 0.715 | 0.621 | 0.617 | 0.707 | 0.844 | 0.766 | 0.842 | 1.01 | 0.882
SW 900 |  |  |  |  |  | 0.827 | 0.948 | 0.976 | 1.05 | 0.974 |  |  |  |  |  |  |  |  |  | 
NCI-H1650 |  |  |  |  |  | 1.12 | 1.1 | 0.969 | 0.885 | 1.32 | 1.27 | 0.981 | 1.35 | 1.24 | 1.41 |  |  |  |  | 
LCLC-103H | 0.915 | 0.954 | 1.09 | 0.986 | 1.18 | 0.752 | 0.787 | 0.778 | 0.918 | 0.825 |  |  |  |  |  | 0.957 | 0.941 | 1.05 | 1.06 | 1.16
NCI-H1623 |  |  |  |  |  | 0.857 | 0.742 | 0.853 | 1.01 | 0.934 |  |  |  |  |  |  |  |  |  | 
ABC-1 | 0.9 | 0.651 | 0.621 | 0.593 | 0.506 | 1.05 | 1.18 | 1 | 0.899 | 0.897 |  |  |  |  |  | 1.22 | 1.07 | 1.08 | 0.997 | 1.07
